67 molecules from US7179806B2, “Δ1-pyrrolines used as pesticides” (Bayer Cropscience AG, priority 2000, dated 2007) can be followed below.

The nature of the data set: log P determination by HPLC (reversed-phase C18, EEC Directive 79/831 Annex V.A8). In kind it is physicochemical. To be noted: reversed-phase C18 HPLC column, pH 2.3, pH 2.3, 0.1% aqueous phosphoric acid/acetonitrile gradient, 43° C. An excerpt: Mobile phases for determination in the acidic range: 0.1% aqueous phosphoric acid, acetonitrile; linear gradient from 10% acetonitrile to 90% acetonitrile.

The structures appear in SMILES notation.

The chromatographic logP is lipophilicity estimated from chromatographic retention. Low values mean lower lipophilicity, high ones higher lipophilicity. Turning to `CC(C)COc1ncc(-c2ccc(C3CCC(c4c(F)cccc4F)=N3)cc2)cn1` (stereo not shown) [Example 33], the chromatographic logP came to 3.22.
Next, `Fc1cccc(F)c1C1=NC(c2ccc(-c3cccnc3)cc2)CC1` (stereo not shown) [Example 18]: 1.12.
Next, `Fc1cccc(F)c1C1=NC(c2ccc(-c3cnc(-n4cccc4)nc3)cc2)CC1` (stereo not shown) [Example 166]: 3.58; `O=S(=O)(Nc1ccc(Cl)nn1)C(F)(F)F` [III-22, N-(6-chloro-3-pyridazinyl)(trifluoro)methane-sulphonamide]: 1.56; `COC(CN(C)c1ncc(-c2ccc(C3CCC(c4c(F)cccc4F)=N3)cc2)cn1)OC` (stereo not shown) [Example 206]: 2.32.
Next, `CN(c1ncc(-c2ccc(C3CCC(c4c(F)cccc4F)=N3)cc2)cn1)S(=O)(=O)C(F)(F)F` (stereo not shown) [Example 37]: 3.5; `Cc1cccc(N2CCN(c3ccc(-c4ccc(C5CCC(c6c(F)cccc6F)=N5)cc4)cn3)CC2)c1C` (stereo not shown) [Example 157]: 3.63.
Molecule `CC(C)(C)C(=O)N(c1ccc(-c2ccc(C3CCC(c4c(F)cccc4F)=N3)cc2)nn1)C1CC1` (stereo not shown) [Example 66] displayed a chromatographic logP of 2.53.
`CCCCCCNc1ncc(-c2ccc(C3CCC(c4c(F)cccc4F)=N3)cc2)cn1` (stereo not shown) [Example 153] had a chromatographic logP of 3.1.
Next, `Fc1cccc(F)c1C1=NC(c2ccc(-c3cnc(OC4CCCCC4)nc3)cc2)CC1` (stereo not shown) [Example 198]: 3.67; `CCCc1cnc(-c2ccc(C3CCC(c4c(F)cccc4F)=N3)cc2)nc1` (stereo not shown) [Example 169]: 2.96; `CN(C)c1ncc(-c2ccc(C3CCC(c4c(F)cccc4F)=N3)cc2)cn1` (stereo not shown) [Example 29]: 3.62.
Next, `CCOC(=O)c1cncc(-c2ccc(C3CCC(c4c(F)cccc4F)=N3)cc2)c1` (stereo not shown) [Example 220]: 2.42; `O=C1CCCN1c1ccc(Cl)nn1` [III-14, 1-(6-chloro-3-pyridazinyl)-2-pyrrolidinone]: 1.09; `O=C1CCCCCN1c1ncc(-c2ccc(C3CCC(c4c(F)cccc4F)=N3)cc2)cn1` (stereo not shown) [Example 167]: 1.89.
Next, `C[C@@H]1CN(c2ncc(-c3ccc(C4CCC(c5c(F)cccc5F)=N4)cc3)cn2)C[C@H](C)O1` (stereo partly shown) [Example 137]: 3.03.
As to `N#Cc1cccnc1N1CCN(c2ccc(-c3ccc(C4CCC(c5c(F)cccc5F)=N4)cc3)cn2)CC1` (stereo not shown) [Example 190], the chromatographic logP stood at 3.09.
Next, `CCCN(CC)c1ncc(Br)cn1` [III-3, N-(5-bromo-2-pyrimidinyl)-N-ethyl-N-propylamine]: 4.38.
Next, `Fc1cccc(F)c1C1=NC(c2ccc(-c3cnc(N4CCN(CC5CCCCC5)CC4)nc3)cc2)CC1` (stereo not shown) [Example 123]: 2.12.
`CCCCN(CC)c1ccc(-c2ccc(C3CCC(c4c(F)cccc4F)=N3)cc2)nn1` (stereo not shown) [Example 77] gave a chromatographic logP of 1.82.
Next, `Fc1cccc(F)c1C1=NC(c2ccc(-c3cnc(Cc4ccccc4)nc3)cc2)CC1` (stereo not shown) [Example 91]: 2.79; `Fc1cccc(F)c1C1=NC(c2ccc(-c3cncnc3)cc2)CC1` (stereo not shown) [Example 28]: 1.49; `CCC(CC)N1CCN(c2ncc(-c3ccc(C4CCC(c5c(F)cccc5F)=N4)cc3)cn2)CC1` (stereo not shown) [Example 135]: 2.13.
Then `Fc1cccc(F)c1C1=NC(c2ccc(-c3cnc(-n4cncn4)nc3)cc2)CC1` (stereo not shown) [Example 118], with 1.55.
Consider `Fc1cccc(F)c1C1=NC(c2ccc(-c3ccc(C(F)(F)F)cn3)cc2)CC1` (stereo not shown) [Example 2], for which the chromatographic logP is 3.25.
Next, `Fc1cccc(F)c1C1=NC(c2ccc(-c3ccc(N4CCOCC4)nn3)cc2)CC1` (stereo not shown) [Example 48]: 1.19; `CCCC(C)N1CCN(c2ncc(-c3ccc(C4CCC(c5c(F)cccc5F)=N4)cc3)cn2)CC1` (stereo not shown) [Example 112]: 1.65.
Then `Cc1ccc(N2CCN(c3ncc(-c4ccc(C5CCC(c6c(F)cccc6F)=N5)cc4)cn3)CC2)cc1C` (stereo not shown) [Example 116], with 3.88; and `Fc1cccc(F)c1C1=NC(c2ccc(-c3ccc(N4CCN(CC5CCCCC5)CC4)nc3)cc2)CC1` (stereo not shown) [Example 128], with 6.7.
Then `Fc1cccc(F)c1C1=NC(c2ccc(-c3ncc(Br)cn3)cc2)CC1` (stereo not shown) [Example 180], with 3.08.
With `CCN(Cc1ccc(Cl)nc1)c1ncc(-c2ccc(C3CCC(c4c(F)cccc4F)=N3)cc2)cn1` (stereo not shown) [Example 209], the chromatographic logP amounted to 3.6.
Then `Brc1ccc(N2CCOCC2)nc1` [III-1, 4-(5-bromo-2-pyridinyl)morpholine], with 1.63; and `CCCN(CCC)c1ccc(-c2ccc(C3CCC(c4c(F)cccc4F)=N3)cc2)nn1` (stereo not shown) [Example 78], with 1.86.
Next, `Fc1cccc(F)c1C1=NC(c2ccc(-c3cnc(Cl)nc3)cc2)CC1` (stereo not shown) [Example 27]: 1.98.
Next, `CN1CCN(c2ncc(-c3ccc(C4CCC(c5c(F)cccc5F)=N4)cc3)cn2)CC1` (stereo not shown) [Example 147]: 1.48; `CCc1cnc(-c2ccc(C3CCC(c4c(F)cccc4F)=N3)cc2)nc1` (stereo not shown) [Example 181]: 2.46; `CCC1CC(CC)CN(c2ncc(-c3ccc(C4CCC(c5c(F)cccc5F)=N4)cc3)cn2)C1` (stereo not shown) [Example 103]: 5.82.
The molecule `CC(C)(C)C(=O)N1CCN(c2ncc(-c3ccc(C4CCC(c5c(F)cccc5F)=N4)cc3)cn2)CC1` (stereo not shown) [Example 36] registered a chromatographic logP of 2.81.
As for `CC(C)N(Cc1ccc(-c2ccc(C3CCC(c4c(F)cccc4F)=N3)cc2)nc1)S(=O)(=O)C(F)(F)F` (stereo not shown) [Example 14], the chromatographic logP was determined as 3.48.
In turn, `CCOCCN1CCN(c2ncc(-c3ccc(C4CCC(c5c(F)cccc5F)=N4)cc3)cn2)CC1` (stereo not shown) [Example 125] displayed a chromatographic logP of 1.47.
Next, `Cc1cnc(-c2ccc(C3CCC(c4c(F)cccc4F)=N3)cc2)nc1` (stereo not shown) [Example 177]: 2.02; `Fc1cccc(F)c1C1=NC(c2ccc(-c3ccc(OCC(F)(F)F)nc3)cc2)CC1` (stereo not shown) [Example 20]: 3.66; `Fc1cccc(F)c1C1=NC(c2ccc(-c3ccc(N4CCCCC4)nc3)cc2)CC1` (stereo not shown) [Example 111]: 1.49.
Then `COc1ccc(CN2CCN(c3ccc(-c4ccc(C5CCC(c6c(F)cccc6F)=N5)cc4)cn3)CC2)cc1` (stereo not shown) [Example 174], with 1.59; and `Fc1cccc(F)c1C1=NC(c2ccc(-c3cnc(N4CCN(Cc5ccc(C(F)(F)F)cc5)CC4)nc3)cc2)CC1` (stereo not shown) [Example 144], with 4.7; and `Fc1cccc(F)c1C1=NC(c2ccc(-c3ccc(N4CCN(Cc5ccccc5)CC4)nc3)cc2)CC1` (stereo not shown) [Example 189], with 1.5.
Next, `Cc1nc(-c2ccc(C3CCC(c4c(F)cccc4F)=N3)cc2)nc(C)c1Cl` (stereo not shown) [Example 219]: 3.9.
For `COCCN(Cc1ccc(-c2ccc(C3CCC(c4c(F)cccc4F)=N3)cc2)nc1)S(=O)(=O)C(F)(F)F` (stereo not shown) [Example 16], the chromatographic logP turned out to be 3.21.
As for `Fc1cccc(F)c1C1=NC(c2ccc(-c3ccc(OCCCC(F)(F)C(F)(F)F)nn3)cc2)CC1` (stereo not shown) [Example 73], the chromatographic logP worked out at 3.58.
Next, `N#CCc1ccc(-c2ccc(C3CCC(c4c(F)cccc4F)=N3)cc2)nc1` (stereo not shown) [Example 6]: 1.74.
Then `CC(C)Oc1ccc(Cl)nn1` [III-18, 3-chloro-6-isopropoxypyridazine], with 1.94; and `COC(=O)c1ccc(-c2ccc(C3CCC(c4c(F)cccc4F)=N3)cc2)nc1` (stereo not shown) [Example 7], with 2.39.
Then `CCOC(CN(C)c1ncc(-c2ccc(C3CCC(c4c(F)cccc4F)=N3)cc2)cn1)OCC` (stereo not shown) [Example 207], with 3.09.
`Clc1ccc(NC2CCCCC2)nn1` [III-15, N-(6-chloro-3-pyridazinyl)-N-cyclohexylamine] came in with a chromatographic logP of 0.95.
Then `CC(C)OC(=O)c1ccc(-c2ccc(C3CCC(c4c(F)cccc4F)=N3)cc2)nc1` (stereo not shown) [Example 8], with 3.89; and `Fc1cccc(F)c1C1=NC(c2ccc(-c3cnc(N4CCN(CCc5ccccc5)CC4)nc3)cc2)CC1` (stereo not shown) [Example 168], with 1.84.
Next, `CCCN(CC)c1ccc(-c2ccc(C3CCC(c4c(F)cccc4F)=N3)cc2)nn1` (stereo not shown) [Example 52]: 1.6.
Next, `Fc1ccc(CN2CCN(c3ncc(-c4ccc(C5CCC(c6c(F)cccc6F)=N5)cc4)cn3)CC2)cc1` (stereo not shown) [Example 145]: 1.78; `Fc1cccc(F)c1C1=NC(c2ccc(-c3cnc(N4CCN(Cc5ccccc5)CC4)nc3)cc2)CC1` (stereo not shown) [Example 152]: 1.92; `CC1CN(c2ncc(-c3ccc(C4CCC(c5c(F)cccc5F)=N4)cc3)cn2)CC(C)O1` (stereo not shown) [Example 104]: 3.
As for `Fc1cccc(F)c1C1=NC(c2ccc(-c3ccc(N4CCN(c5ncccn5)CC4)nc3)cc2)CC1` (stereo not shown) [Example 204], the chromatographic logP was determined as 1.5.
Next, `COC(=O)C1CCN(c2ccc(-c3ccc(C4CCC(c5c(F)cccc5F)=N4)cc3)cn2)CC1` (stereo not shown) [Example 170]: 1.61; `Fc1ccc(N2CCN(c3ncc(-c4ccc(C5CCC(c6c(F)cccc6F)=N5)cc4)cn3)CC2)cc1` (stereo not shown) [Example 149]: 3.95; `CC(C)S(=O)(=O)c1ccc(Cl)nn1` [III-21, 6-chloro-3-pyridazinyl isopropyl sulphone]: 1.2.
Next, `CC(C)Oc1ncc(Br)cn1` [III-7, 5-bromo-2-pyrimidinyl isopropyl ether]: 2.39.
Then `COCCCN1CCN(c2ncc(-c3ccc(C4CCC(c5c(F)cccc5F)=N4)cc3)cn2)CC1` (stereo not shown) [Example 126], with 1.38.
`COc1ccc(CN2CCN(c3ncc(-c4ccc(C5CCC(c6c(F)cccc6F)=N5)cc4)cn3)CC2)cc1` (stereo not shown) [Example 142] returned a chromatographic logP of 2.22.
